Measured values as given in patent US20230091047A1 (priority 2019, published 2023).
Like-named read-outs stand apart in the source and are kept apart here.

Tests used:
[1] = system: HBV (HepG2.117 cell line, inducibly HBV producing); assay: Anti-HBV activity: intracellular HBV DNA by real-time PCR in HepG2.117 cells after 3 days of treatment; format: cell-based, hepatitis B virus; details: Hepatitis B virus, HepG2.117, 72 h, read-out: EC50 (μM, mean value)
Outline: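 Readout is intracellular HBV DNA, measured by real-time PCR with HBV-specific primers and probe after 3 days of exposure to serial compound dilutions. Cells are the stable HepG2.117 line, where HBV replication is induced in the absence of doxycycline.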

in vitro = format: cell-based; details: human, HepG2 or HepG2.117 cells, ATPlite, mean value; for CC50 at 4 days: 4-days incubation (values marked with *)
Outline: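 Luminescent ATP quantitation served as the viability endpoint following a 3- or 4-day incubation with test compounds.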

[2] = HepG2.117 cells, 3 days of treatment, intracellular HBV DNA by real-time PCR, mean value
[3] = 3-days incubation (unmarked values)
[4] = HepG2.117 cells, intracellular HBV DNA by real-time PCR, 3 days of treatment, mean value
[5] = 3-days incubation (not marked with *)

| Structure (SMILES) | EC50 [1, 2] [µM] | CC50 at 3 days (in vitro; [3]) [µM] | EC50 [1, 4] [µM] | CC50 at 3 days (in vitro; [5]) [µM] | other results |
| --- | --- | --- | --- | --- | --- |
| COc1ccccc1-n1c(NCc2cccnc2)nc2c(c1=O)CCN(C(=O)c1ccc(Cl)c(Cl)c1)C2 [Compound C9, 7-(3,4-dichlorobenzoyl)-3-(2-methoxyphenyl)-2-{[(pyridin-3-yl)methyl]amino}-5,6,7,8-tetrahydropyrido[3,4-d]pyrimidin-4(3H)-one] | 11.6 |  |  |  | CC50 at 4 days (in vitro): > 50 µM |
| CC(C)Nc1nc2c(c(=O)n1-c1ccc(-n3cccn3)cc1)CCN(C(=O)c1ccc(Cl)c(Cl)c1)C2 [Compound C144, 7-(3,4-dichlorobenzoyl)-2-[(propan-2-yl)amino]-3-[4-(1H-pyrazol-1-yl)phenyl]-5,6,7,8-tetrahydropyrido[3,4-d]pyrimidin-4(3H)-one] | 0.6 | > 50 |  |  |  |
| COc1ccc(CNc2nc3c(c(=O)n2-c2ccc(S(C)(=O)=O)cc2)CC(c2ccc(F)cc2)N(C(=O)c2ccc(Cl)c(Cl)c2)C3)cc1 (stereo not shown) [Compound C109, 7-(3,4-dichlorobenzoyl)-6-(4-fluorophenyl)-3-[4-(methanesulfonyl)phenyl]-2-{[(4-methoxyphenyl)methyl]amino}-5,6,7,8-tetrahydropyrido[3,4-d]pyrimidin-4(3H)-one] |  | > 50 |  |  | EC50 [1]: 2.11 µM |
| CNC(=O)c1ccc(-n2c(NC(C)C)nc3c(c2=O)C[C@@H](C)N(C(=O)c2cc(F)c(C(F)(F)F)c(F)c2)C3)cc1 [Compound C476] |  |  | 0.12 | > 50 |  |
| COc1ccc(CN(C)c2nc3c(c(=O)[nH]2)CCN(C(=O)c2ccc(Cl)c(Cl)c2)C3)cc1 [Compound C31, 7-(3,4-dichlorobenzoyl)-2-{[(4-methoxyphenyl)methyl](methyl)amino}-5,6,7,8-tetrahydropyrido[3,4-d]pyrimidin-4(3H)-one] | 2.63 | > 50 |  |  |  |
| CC(C)Nc1nc2c(c(=O)n1-c1ccc(S(C)(=O)=O)cc1)C[C@H](c1ccc(F)cc1)N(C(=O)c1ccc(Cl)c(Cl)c1)C2 (single isomer, unassigned) [Compound C110B, (6*R)-7-(3,4-dichlorobenzoyl)-6-(4-fluorophenyl)-3-[4-(methanesulfonyl)phenyl]-2-[(propan-2-yl)amino]-5,6,7,8-tetrahydropyrido[3,4-d]pyrimidin-4(3H)-one] | 6.38 | > 50 |  |  |  |
| CNC(=O)c1ccc(-n2c(N3CCC34CCC4)nc3c(c2=O)C[C@@H](C)N(C(=O)c2ccc(Cl)c(Cl)c2)C3)cc1 [Compound C373] | 0.71 | 28.3 |  |  |  |
| CC(C)Nc1nc2c(c(=O)n1-c1ccc(-c3cnc[nH]3)cc1)C[C@@H](C)N(C(=O)c1ccc(Cl)c(Cl)c1)C2 [Compound C213, (6R)-7-(3,4-dichlorobenzoyl)-3-[4-(1H-imidazol-5-yl)phenyl]-6-methyl-2-[(propan-2-yl)amino]-5,6,7,8-tetrahydropyrido[3,4-d]pyrimidin-4(3H)-one] | 0.36 | > 50 |  |  |  |
| CNC(=O)c1ccc(-n2c(NC(C)C)nc3c(c2=O)C[C@@H](C)N(C(=O)c2cc4ccc(Br)c(F)c4[nH]2)C3)cc1 [Compound C568] |  |  | 0.02 | 25.8 |  |
| CNC(=O)c1ccc(-n2c(N[C@H](C)c3ccc(OC)c(F)c3)nc3c(c2=O)C[C@@H](C)N(C(=O)c2ccc(Cl)c(Cl)c2)C3)cc1 (single isomer, unassigned) [Compound C416a] |  |  | 0.96 | > 50 |  |
| CNC(=O)c1ccc(-n2c(O[C@H](C)C(C)C)nc3c(c2=O)C[C@@H](C)N(C(=O)c2ccc(Cl)c(Cl)c2)C3)cc1 [Compound C458] |  |  | 0.06 | 24.8 |  |
| CC(C)Nc1ncc(-n2c(NC(C)C)nc3c(c2=O)C[C@@H](C)N(C(=O)c2ccc(Cl)c(Cl)c2)C3)cn1 [Compound C279, (6R)-7-(3,4-dichlorobenzoyl)-6-methyl-2-[(propan-2-yl)amino]-3-{2-[(propan-2-yl)amino]pyrimidin-5-yl}-5,6,7,8-tetrahydropyrido[3,4-d]pyrimidin-4(3H)-one] | 0.31 | > 46 |  |  |  |
| CNC(=O)c1ccc(-n2c(NCc3nnn(C)c3C(F)(F)F)nc3c(c2=O)C[C@@H](C)N(C(=O)c2ccc(Cl)c(Cl)c2)C3)cc1 [Compound C539] |  |  | 5.47 | > 50 |  |
| CNC(=O)c1ccc(-n2c(N[C@@H]3CCOc4cc(OC)ccc43)nc3c(c2=O)C[C@@H](C)N(C(=O)c2ccc(Cl)c(Cl)c2)C3)cc1 (single isomer, unassigned) [Compound C527a] |  |  | 0.39 | > 50 |  |
| COc1ccc(CNc2nc3c(c(=O)n2-c2cccc(C(F)(F)F)c2)CCN(C(=O)c2ccc(Cl)c(Cl)c2)C3)cc1 [Compound C7, 7-(3,4-dichlorobenzoyl)-2-{[(4-methoxyphenyl)methyl]amino}-3-[3-(trifluoromethyl)phenyl]-5,6,7,8-tetrahydropyrido[3,4-d]pyrimidin-4(3H)-one] | 2.03 |  |  |  | CC50 at 4 days (in vitro): > 50 µM |
| CNC(=O)c1ccc(-n2c(N[C@H](CCO)C3CC3)nc3c(c2=O)C[C@@H](C)N(C(=O)c2ccc(Cl)c(Cl)c2)C3)cc1 (single isomer, unassigned) [Compound C283, 4-[(6R)-2-{[(1*R)-1-cyclopropyl-3-hydroxypropyl]amino}-7-(3,4-dichlorobenzoyl)-6-methyl-4-oxo-5,6,7,8-tetrahydropyrido[3,4-d]pyrimidin-3(4H)-yl]-N-methylbenzamide] | 5.52 | > 50 |  |  |  |
| CCC1Cc2c(nc(NC(C)C)n(-c3ccc(S(C)(=O)=O)cc3)c2=O)CN1C(=O)c1ccc(Cl)c(Cl)c1 (stereo not shown) [Compound C158, 7-(3,4-dichlorobenzoyl)-6-ethyl-3-[4-(methanesulfonyl)phenyl]-2-[(propan-2-yl)amino]-5,6,7,8-tetrahydropyrido[3,4-d]pyrimidin-4(3H)-one] | 1.14 | > 50 |  |  |  |
| COc1ccccc1-n1c(NC(C)c2ccncc2)nc2c(c1=O)CCN(C(=O)c1ccc(Cl)c(Cl)c1)C2 (stereo not shown) [Compound C56, 7-(3,4-dichlorobenzoyl)-3-(2-methoxyphenyl)-2-{[1-(pyridin-4-yl)ethyl]amino}-5,6,7,8-tetrahydropyrido[3,4-d]pyrimidin-4(3H)-one] | 1.93 | > 50 |  |  |  |
| O=C(c1ccc(Cl)c(Cl)c1)N1CCc2c(nc(NCc3ccccc3)n(-c3ccccc3)c2=O)C1 [Compound C33, 2-(benzylamino)-7-(3,4-dichlorobenzoyl)-3-phenyl-5,6,7,8-tetrahydropyrido[3,4-d]pyrimidin-4(3H)-one] | 4.27 | 24.4 |  |  |  |
| CNC(=O)c1ccc(-n2c(N[C@H](C)c3ccc(S(C)(=O)=O)cc3)nc3c(c2=O)C[C@@H](C)N(C(=O)c2ccc(Cl)c(Cl)c2)C3)cc1 (single isomer, unassigned) [Compound C412a] |  |  | 0.94 | > 50 |  |
| CNC(=O)c1ccc(-n2c(N[C@H]3CC3(C)C)nc3c(c2=O)C[C@@H](C)N(C(=O)c2ccc(Cl)c(Cl)c2)C3)cc1 [Compound C334, 4-[(6R)-7-(3,4-dichlorobenzoyl)-2-{[(1S)-2,2-dimethylcyclopropyl]amino}-6-methyl-4-oxo-5,6,7,8-tetrahydropyrido[3,4-d]pyrimidin-3(4H)-yl]-N-methylbenzamide] | 1.89 | > 50 |  |  |  |
| C#C[C@H](C)Nc1nc2c(c(=O)n1-c1ccc(C(=O)NC)cc1)C[C@@H](C)N(C(=O)c1ccc(Cl)c(Cl)c1)C2 [Compound C302, 4-[(6R)-2-{[(2S)-but-3-yn-2-yl]amino}-7-(3,4-dichlorobenzoyl)-6-methyl-4-oxo-5,6,7,8-tetrahydropyrido[3,4-d]pyrimidin-3(4H)-yl]-N-methylbenzamide] | 0.06 | > 50 |  |  |  |
| CC(C)Nc1nc2c(c(=O)n1-c1ccc(C(=O)NC3CC3)cc1)C[C@@H](C)N(C(=O)c1ccc(Cl)c(C(F)F)c1)C2 [Compound C681] |  |  | 0.04 | > 50 |  |
| CNC(=O)c1cc(-n2c(N[C@@H](C)c3ccc(OC(F)(F)F)cc3)nc3c(c2=O)C[C@@H](C)N(C(=O)c2ccc(Cl)c(Cl)c2)C3)[nH]n1 [Compound C607] |  |  | 0.14 | 11.4 |  |
| COc1ccc(CNc2nc3c(c(=O)[nH]2)CCN(C(=O)c2ccc(C#N)c(Cl)c2)C3)cc1 [Compound C82, 2-chloro-4-[2-{[(4-methoxyphenyl)methyl]amino}-4-oxo-4,5,6,8-tetrahydropyrido[3,4-d]pyrimidine-7(3H)-carbonyl]benzonitrile] | 23.4 | > 50 |  |  |  |
| CC(C)Nc1nc2c(c(=O)n1-c1ccc(-c3ncc[nH]3)cc1)C[C@@H](C)N(C(=O)c1ccc(Cl)c(Cl)c1)C2 [Compound C196, (6R)-7-(3,4-dichlorobenzoyl)-3-[4-(1H-imidazol-2-yl)phenyl]-6-methyl-2-[(propan-2-yl)amino]-5,6,7,8-tetrahydropyrido[3,4-d]pyrimidin-4(3H)-one] | 0.17 | > 43 |  |  |  |
| CNC(=O)c1ccc(-n2c(N[C@@H](C)c3ccc(F)cc3F)nc3c(c2=O)C[C@@H](C)N(C(=O)c2ccc(Cl)c(Cl)c2)C3)cc1 (single isomer, unassigned) [Compound C689b] |  |  | 0.46 | 27.3 |  |
| CNC(=O)c1ccc(-n2c(NC(C)C)nc3c(c2=O)C[C@@H](C)N(C(=O)c2cc(Cl)c(Br)cc2OC)C3)cc1 [Compound C521] |  |  | 7.64 | > 50 |  |
| CNC(=O)c1ccc(-n2c(NCc3ccn(-c4ccc(F)cc4)n3)nc3c(c2=O)C[C@@H](C)N(C(=O)c2ccc(Cl)c(Cl)c2)C3)cc1 [Compound C465] |  |  | 0.65 | 22.6 |  |
